Laboratory results taken from patent EP4722213A1, “NITROGEN-CONTAINING FUNCTIONAL GROUP-SUBSTITUTED PYRIDAZINOPYRIDONE DERIVATIVE AND USE THEREOF” (Sichuan Huiyu Pharmaceutical Co., Ltd., priority 2023, dated 2024).
Counter-ions that a name gives are not always drawn.

Columns and labels:
[1] = target: T1, SOS1 (Homo sapiens, UniProt Q07889); assay: biochemical
T1 sequence (Q07889 1-1333): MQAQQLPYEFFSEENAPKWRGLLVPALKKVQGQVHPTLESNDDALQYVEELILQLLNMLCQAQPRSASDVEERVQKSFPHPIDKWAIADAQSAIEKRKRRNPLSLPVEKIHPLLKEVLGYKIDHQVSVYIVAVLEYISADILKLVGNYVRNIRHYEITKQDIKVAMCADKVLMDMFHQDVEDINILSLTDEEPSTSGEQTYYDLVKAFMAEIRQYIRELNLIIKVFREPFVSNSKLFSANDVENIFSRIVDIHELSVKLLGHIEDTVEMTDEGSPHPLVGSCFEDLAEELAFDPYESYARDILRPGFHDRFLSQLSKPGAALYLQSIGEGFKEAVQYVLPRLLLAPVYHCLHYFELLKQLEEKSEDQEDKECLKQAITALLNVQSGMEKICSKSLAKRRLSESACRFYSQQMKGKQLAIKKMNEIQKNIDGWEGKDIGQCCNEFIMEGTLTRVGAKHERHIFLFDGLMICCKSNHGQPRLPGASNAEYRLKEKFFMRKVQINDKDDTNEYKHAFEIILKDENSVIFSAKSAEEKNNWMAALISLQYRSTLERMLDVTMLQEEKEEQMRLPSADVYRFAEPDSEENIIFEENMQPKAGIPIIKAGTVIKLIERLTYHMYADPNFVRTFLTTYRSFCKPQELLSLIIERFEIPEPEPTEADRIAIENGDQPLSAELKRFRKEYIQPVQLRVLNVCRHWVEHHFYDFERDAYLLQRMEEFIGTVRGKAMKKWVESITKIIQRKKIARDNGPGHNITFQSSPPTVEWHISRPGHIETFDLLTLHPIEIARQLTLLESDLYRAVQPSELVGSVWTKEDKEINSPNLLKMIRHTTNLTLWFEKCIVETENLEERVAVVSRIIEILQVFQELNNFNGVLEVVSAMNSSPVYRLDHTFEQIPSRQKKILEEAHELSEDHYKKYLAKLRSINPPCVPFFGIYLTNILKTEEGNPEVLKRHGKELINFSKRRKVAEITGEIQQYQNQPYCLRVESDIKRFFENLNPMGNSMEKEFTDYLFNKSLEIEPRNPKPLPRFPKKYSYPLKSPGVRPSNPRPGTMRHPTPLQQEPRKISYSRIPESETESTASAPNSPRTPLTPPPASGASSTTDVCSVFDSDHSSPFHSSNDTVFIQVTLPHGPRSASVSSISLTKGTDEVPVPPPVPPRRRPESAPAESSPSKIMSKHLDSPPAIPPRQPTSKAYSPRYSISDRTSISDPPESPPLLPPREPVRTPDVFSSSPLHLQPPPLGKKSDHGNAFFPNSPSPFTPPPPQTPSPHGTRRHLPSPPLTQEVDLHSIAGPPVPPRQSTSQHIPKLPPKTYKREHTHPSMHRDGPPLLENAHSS

[2] = tested on: NCI-H358 non-small cell lung cancer cells; assay: Inhibition of NCI-H358 cell proliferation (CellTiter-Glo 3D, 7 days); format: cell-based; details: Homo sapiens, NCI-H358, 168 h, 3D microspheres, read-out: Inhibitory activity against NCI-H358 cell proliferation (IC50)
Procedure: The number of viable cells were detected by CellTiter-Glo 3D® reagent, thereby evaluating the inhibitory effect of compounds on cell proliferation. NCI-H358 non-small cell lung cancer cells (Nanjing cobioer) in the exponential growth phase were digested with trypsin-EDTA, and seeded into 96-well ultra-low attachment microplates at 100 µL per well with a density of 2000 cells/well. The cells were cultured overnight at 37°C with 5% CO2 to form microspheres. The test compounds were serially diluted 5-fold with DMSO to obtain 8 concentration gradient dilutions, then diluted with RPMI-1640 (10% FBS) cell culture medium respectively to obtain compound working solutions (2×). 100 µL per well was added to the cell supernatant, and the culture was continued for 7 days under the conditions of 37°C and 5% CO2. The well plate was removed, and 100 µL of CellTiter-Glo 3D® reagent was added. After lysis at room temperature for 10-30 minutes, 70 µL of the lysate was aspirated and transferred to a white opaque 384-well plate.
The inhibition rate was calculated by the following formula: [formula] Note: The negative control refers to the group without inhibitor, and the blank refers to the group without cells.
The inhibitory activities of some Example compounds and comparative compounds against NCI-H358 cell proliferation are shown in Table 2. Table 2. Inhibitory activity of some Example compounds against NCI-H358 cell proliferation

Cc1c([C@@H](C)Nc2nnc(N3CCCC3)c3cc(=O)n(C4CC4)cc23)cccc1C(F)(F)F [Example 49, (R)-6-cyclopropyl-4-((1-(2-methyl-3-(trifluoromethyl)phenyl)ethyl)amino)-1-(pyrrolidin-1-yl) pyrido[3,4-d]pyridazin-7(6H)-one] was tested. Which IC50 [1] did it give?
The IC50 was 6 nM.

What about the IC50 [2] of the same compound?
Its IC50 is 55.1 nM.

For C[C@@H](Nc1nnc(N2CCCC2)c2cc(=O)n(C3(C)CC3)cc12)c1cccc(C(F)F)c1F [Example 5, (R)-4-((1-(3-(difluoromethyl)-2-fluorophenyl)ethyl)amino)-6-(1-methylcyclopropyl)-1-(pyrrolidin-1-yl)pyrido[3,4-d]pyridazin-7(6H)-one], which IC50 [1] is on record?
The IC50 was 4.7 nM.

And the IC50 [2]?
The IC50 was 50.1 nM.

Which IC50 [1] does the source give for CC1CN(c2nnc(N[C@H](C)c3cccc(C(F)F)c3F)c3cn(C4(C)CC4)c(=O)cc23)C1 [Example 130, (R)-4-((1-(3-(difluoromethyl)-2-fluorophenyl)ethyl)amino)-1-(3-methylazetidin-1-yl)-6-(1-methylcyclopropyl) pyrido[3,4-d]pyridazin-7(6H)-one] here?
Its IC50 is 3.4 nM.

What about the IC50 [2] of the same compound?
Its IC50 is 47.8 nM.

What does the source list for C[C@@H](Nc1nnc(N2CC3(CCC3)C2)c2cc(=O)n(C3(C)CC3)cc12)c1cccc(C(F)F)c1F [Example 191, (R)-4-((1-(3-(difluoromethyl)-2-fluorophenyl)ethyl)amino)-6-(1-methylcyclopropyl)-1-(2-azaspiro[3.3]heptan-2-yl)pyrido[3,4-d]pyridazin-7(6H)-one]?
IC50 [1]: 4.5 nM; IC50 [2]: 39.3 nM

What does the source list for CCNc1nnc(N[C@H](C)c2cccc(C(F)F)c2F)c2cn(C3(C)CC3)c(=O)cc12 [Example 105, (R)-4-((1-(3-(difluoromethyl)-2-fluorophenyl)ethyl)amino)-1-(ethylamino)-6-(1-methylcyclopropyl) pyrido[3,4-d]pyridazin-7(6H)-one]?
IC50 [1]: 4.7 nM; IC50 [2]: 58.1 nM

Which IC50 [1] does the source give for Cc1c([C@@H](C)Nc2nnc(N3CCCC3)c3cc(=O)n(C4(C)CC4)cc23)cccc1C(F)(F)F [Example 61, (R)-4-((1-(2-methyl-3-(trifluoromethyl)phenyl)ethyl)amino)-6-(1-methylcyclopropyl)-1-(pyrrolidin-1-yl)pyrido[3,4-d]pyridazin-7(6H)-one] here?
The IC50 was 6.1 nM.

And the IC50 [2]?
The IC50 was 31.8 nM.

What does the source list for C[C@@H](Nc1nnc(N2CCN3CCCC3C2)c2cc(=O)n(C3(C)CC3)cc12)c1cccc(C(F)F)c1F (stereo partly drawn) [Example 192, 4-(((R)-1-(3-(difluoromethyl)-2-fluorophenyl)ethyl)amino)-1-(hexahydropyrrolo[1,2-a]pyrazin-2(1H)-yl)-6-(1-methylcyclopropyl) pyrido[3,4-d]pyridazin-7(6H)-one]?
IC50 [1]: 3.8 nM; IC50 [2]: 28.8 nM

Cc1c([C@@H](C)Nc2nnc(N3CCN(C)CC3)c3cc(=O)n(C4(C)CC4)cc23)cccc1C(F)(F)F [Example 81, (R)-4-((1-(2-methyl-3-(trifluoromethyl)phenyl)ethyl)amino)-6-(1-methylcyclopropyl)-1-(4-methylpiperazin-1-yl)pyrido[3,4-d]pyridazin-7(6H)-one] was tested. Which IC50 [1] did it give?
The IC50 was 6.3 nM.

What about the IC50 [2] of the same compound?
Its IC50 is 65.3 nM.

Which IC50 [1] does the source give for C[C@@H](Nc1nnc(N2CCN(C)CC2)c2cc(=O)n(C3CC3)cc12)c1cccc(S(F)(F)(F)(F)F)c1 [Example 89, (R)-6-cyclopropyl-1-(4-methylpiperazin-1-yl)-4-((1-(3-(pentafluoro-λ^6-sulfaneyl)phenyl)ethyl)amino)pyrido[3,4-d]pyridazin-7(6H)-one] here?
The IC50 was 4.1 nM.

And the IC50 [2]?
The IC50 was 58.6 nM.

Which results are given for C[C@@H](Nc1nnc(N2CCN(C)CC2)c2cc(=O)n(C3(C)CC3)cc12)c1cccc(C(F)(F)F)c1F [Example 164, (R)-4-((1-(2-fluoro-3-(trifluoromethyl)phenyl)ethyl)amino)-6-(1-methylcyclopropyl)-1-(4-methylpiperazin-1-yl)pyrido[3,4-d]pyridazin-7(6H)-one]?
IC50 [1]: 4.2 nM; IC50 [2]: 32.8 nM

For CCN1CCN(c2nnc(N[C@H](C)c3cccc(C(F)(F)F)c3F)c3cn(C4(C)CC4)c(=O)cc23)CC1 [Example 168, (R)-1-(4-ethylpiperazin-1-yl)-4-((1-(2-fluoro-3-(trifluoromethyl)phenyl)ethyl)amino)-6-(1-methylcyclopropyl) pyrido[3,4-d]pyridazin-7(6H)-one formate], which IC50 [1] is on record?
Its IC50 is 4.1 nM.

And the IC50 [2]?
Its IC50 is 35.5 nM.

How did the IC50 [1] turn out when C[C@@H](Nc1nnc(N2CCN(CCO)CC2)c2cc(=O)n(C3(C)CC3)cc12)c1cccc(C(F)F)c1F [Example 194, (R)-4-((1-(3-(difluoromethyl)-2-fluorophenyl)ethyl)amino)-1-(4-(2-hydroxyethyl)piperazin-1-yl)-6-(1-methylcyclopropyl) pyrido[3,4-d]pyridazin-7(6H)-one] was run?
The IC50 was 3.9 nM.

What about the IC50 [2] of the same compound?
The IC50 was 44.9 nM.

What does the source list for C[C@@H](Nc1nnc(N2CCN(C)CC2)c2cc(=O)n(C3(C)CC3)cc12)c1cccc(C(F)(F)F)c1 [Example 157, (R)-1-(4-methylpiperazin-1-yl)-6-(1-methylcyclopropyl)-4-((1-(3-(trifluoromethyl)phenyl)ethyl)amino)pyr ido[3,4-d]pyridazin-7(6H)-one formate]?
IC50 [1]: 5.1 nM; IC50 [2]: 52.2 nM

How did the IC50 [2] turn out when Cc1c([C@@H](C)Nc2nnc(C)c3cc(=O)n(C4(C)CC4)cc23)cccc1C(F)(F)F [comparative compound 1, (R)-1-methyl-4-((1-(2-methyl-3-(trifluoromethyl)phenyl)ethyl)amino)-6-(1-methylcyclopropyl) pyrido[3,4-d]pyridazin-7(6H)-one, reference compound] was run?
The IC50 was 282 nM.

What does the source list for C[C@@H](Nc1nnc(NC2CCOC2)c2cc(=O)n(C3(C)CC3)cc12)c1cccc(C(F)F)c1F (stereo partly drawn) [Example 119, 4-(((R)-1-(3-(difluoromethyl)-2-fluorophenyl)ethyl)amino)-6-(1-methylcyclopropyl)-1-((tetrahydrofuran-3-yl)amino)pyrido[3,4-d]pyridazin-7(6H)-one formate]?
IC50 [1]: 4.3 nM; IC50 [2]: 59.1 nM

Which IC50 [1] does the source give for C[C@@H](Nc1nnc(N2CCN(C)CC2)c2cc(=O)n(N3CCN(C)CC3)cc12)c1cccc(C(F)F)c1F [Example 151, (R)-4-((1-(3-(difluoromethyl)-2-fluorophenyl)ethyl)amino)-1,6-bis(4-methylpiperazin-1-yl)pyrido[3,4-d]pyridazin-7(6H)-one] here?
The IC50 was 3.8 nM.

And the IC50 [2]?
Its IC50 is 39.4 nM.

With Cc1nnc(N[C@H](C)c2cccc(C(F)(F)F)c2)c2cn(C3(C)CC3)c(=O)cc12 [comparative compound2, (R)-1-methyl-6-(1-methylcyclopropyl)-4-((1-(3-(trifluoromethyl)phenyl)ethyl)amino)pyrido[3,4-d]pyridazin-7(6H)-one hydrochloride, reference compound] as the compound, how does the IC50 [2] read?
Its IC50 is 377 nM.

How did the IC50 [1] turn out when C[C@@H](Nc1nnc(N2CCC2)c2cc(=O)n(C3(C)CC3)cc12)c1cccc(C(F)F)c1F [Example 16, (R)-1-(azetidin-1-yl)-4-((1-(3-(difluoromethyl)-2-fluorophenyl)ethyl)amino)-6-(1-methylcyclopropyl) pyrido[3,4-d]pyridazin-7(6H)-one formate] was run?
The IC50 was 4.1 nM.

What about the IC50 [2] of the same compound?
The IC50 was 57.8 nM.

For CCN1CCN(c2nnc(N[C@H](C)c3cccc(C(F)(F)F)c3)c3cn(C4(C)CC4)c(=O)cc23)CC1 [Example 156, (R)-1-(4-ethylpiperazin-1-yl)-6-(1-methylcyclopropyl)-4-((1-(3-(trifluoromethyl)phenyl)ethyl)amino)pyr ido[3,4-d]pyridazin-7(6H)-one formate], which IC50 [1] is on record?
The IC50 was 5.4 nM.

And the IC50 [2]?
Its IC50 is 47.4 nM.
